Measured values published in patent publication US6448268B1, “Aryl-{4-fluoro-4-[(2-pyridin-2-yl-ethylamino)-methyl]-piperidin-1-yl}-methanone derivatives as 5-ht1 receptor antagonists” (Pierre Fabre Medicament, priority 1998, dated 2002).
Where a name gives a salt, the structure may show the parent alone.

What was measured:
5-HT1A receptor [1] = biological target: T1, 5-HT1A receptor (Rattus norvegicus, UniProt P19327); test: 5-HT1A receptor agonist activity in vivo: lower lip retraction (LLR) after oral administration; set-up: Male Sprague Dawley rats (ICO:OFAD [IOPS], Iffa Credo, France); from tissue; host or cells: whole animal, male Sprague Dawley rats, oral dosing; conditions: rats, observed t55 to t65 min, doses as base weight, read-out: LLR p.o. ED50
T1 sequence (P19327 1-422): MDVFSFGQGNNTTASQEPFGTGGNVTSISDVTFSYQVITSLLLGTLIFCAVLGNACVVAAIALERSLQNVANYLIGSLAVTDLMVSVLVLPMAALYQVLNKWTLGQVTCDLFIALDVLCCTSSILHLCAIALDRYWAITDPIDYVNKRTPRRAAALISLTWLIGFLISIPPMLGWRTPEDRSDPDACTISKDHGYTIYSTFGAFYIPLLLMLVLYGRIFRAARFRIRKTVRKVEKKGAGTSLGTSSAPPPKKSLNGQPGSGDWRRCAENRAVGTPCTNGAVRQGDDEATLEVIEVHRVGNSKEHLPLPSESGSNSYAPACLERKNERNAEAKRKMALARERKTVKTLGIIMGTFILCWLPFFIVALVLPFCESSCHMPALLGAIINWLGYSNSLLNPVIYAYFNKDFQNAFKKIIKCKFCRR
Excerpt: 3—Evaluation of the 5-HT1A Receptor Agonist Activity of the Compounds of the Invention In Vivo.
Male Sprague Dawley rats (ICO:OFAD [IOPS], Iffa Credo, France), weighing 160-180 g on arrival and 180-200 g at the start of the tests, are used. The animals are placed in quarantine for 4 to 8 days with free access to standardized laboratory food, before being used in the experiments. The animals are housed individually in plastic cages on cage holders (28 cm×21 cm×18 cm) with a grille floor (RC Iffa Credo), 24 hours before the tests. By means of an automatic dispenser, water filtered through a 0.22 μm filter is freely available. The quarantine area and the experiment laboratory are air conditioned (temperature: 22±1° C.; relative humidity: 55±5%) and illuminated from 7 a.m. to 7 p.m. All the rats are treated according to the ethics for laboratory animals (Guide for the Care and Use of Laboratory Animals, U.S. Department of Agriculture, Public Health Service, National Institutes of Health publication No. 85-23, Revised 1985) and the protocol (No. 15) is carried out in accordance with the recommendations of the local research animals ethics committee. […]
The behavior of the animal is observed for a period of 10 minutes each, centered at t60 minutes, after oral administration. […] The products are administered in a volume of 10 ml/kg and the doses are expressed as base weight. […]

5-HT1A receptor [2] = biological target: T1, 5-HT1A receptor; test: Affinity for 5-HT1A receptors by displacement of (3H)8-OH-DPAT; assay type: binding; set-up: from tissue; host or cells: rat cerebral cortex membrane homogenate; conditions: for Ki: rat cerebral cortex, (3H)8-OH-DPAT displacement, read-out: pKi 5-HT1A (converted); for Selectivity 5-HT1A/D2: ratio of the affinity constants (Ki) D2/Ki (5-HT1A)
Method: 1—Measurement of the Affinity of the Compounds of the Invention for the 5-HT1A Receptors
The in vitro affinity of the compounds of the invention for 5-HT1A receptors was determined by measuring the displacement of (^3H)8-OH-DPAT (TRK 850; 160-240 Ci/mmol).
The study of the binding to the 5-HT1A receptor is carried out as described by Sleight and Peroutka (Naunyn-Schmiedeberg's Arch. Pharmaco., 1991, 343, 106). Rat cerebral cortices are used for these experiments. After thawing the brain in 50 mmol Tris-HCl buffer pH=7.40 at 25° C., the cerebral cortex is removed and homogenized in 20 volumes of buffer maintained at 4°C. The homogenate is centrifuged at 39,000×g for 10 minutes and the centrifugation pellet is suspended in the same volume of buffer and centrifuged again. After resuspending under the same conditions, the homogenate is incubated for 10 minutes at 37° C. and then centrifuged again. The final pellet is suspended in cold 50 mmol Tris-HCl reaction buffer, pH=7.40 at 25° C., containing 10 mmol of pargyline, 4 mmol of CaCl2 and 0.10% ascorbic acid. The final concentration of tissue in the incubation medium is 10 mg/tube.
The reaction tubes contain 0.10 ml of (^3H)8-OH-DPAT ([…]), 0.10 ml of test product 6-7 concentrations and 0.80 ml of tissue. The nonspecific binding is defined using 10 mmol of 5-HT. The reaction tubes are incubated at 23° C. for 30 minutes and their contents are then rapidly filtered under vacuum through Whatman GF/B filters and the tubes are rinsed with twice 5 ml of 50 mmol Tris-HCl buffer, pH=7.4 at 25° C. The radioactivity collected on the filter is analyzed by liquid scintillation by adding 4 ml of liquid scintillant (Emulsifier Safe, Packard). All the experiments are carried out in triplicate.
The inhibition constants (Ki) of the products of the invention are estimated from the displacement experiments using the nonlinear regression program RADLIG version 4 from EBDA (Equilibrium Binding Data Analysis) (Biosoft, Cambridge, UK, McPherson, 1985). The dissociation constants of the radioactive ligands used in the calculations are […] for (^3H)8-OH-DPAT and 0.036 mmol for (^3H)YM-09151-2. The pKi (−logKi) values are given in the form of the mean±SEM of at least 3 experiments.

Question: Which melting point does the source give for `O=C(c1ccc(F)c(Cl)c1)N1CCC(F)(CNCCc2ccccn2)CC1` (as salt: oxalate) [Example 1, (3-Chloro-4-fluorophenyl){4-fluoro-4-[(2-pyrid-2-ylethylamino)methyl]-l-piperidyl}methanone] here?
Answer: 172 to 174 °C

Question: With `O=C(c1ccc(Cl)c(Cl)c1)N1CCC(F)(CNCCc2ccccn2)CC1` (as salt: oxalate) [Example 2, (3,4-Dichlorophenyl){4-fluoro-4-[(2-pyrid-2-ylethylamino)methyl]-1-piperidyl}methanone] as the compound, how does the melting point read?
Answer: 192 to 194 °C

Question: With `O=C(c1ccc(F)c(Cl)c1)N1CCC(F)(CNCCc2ccccn2)CC1` [Example 1, (3-Chloro-4-fluorophenyl){4-fluoro-4-[(2-pyrid-2-ylethylamino)methyl]-l-piperidyl}methanone] as the compound, how does the ED50 (5-HT1A receptor [1]) read?
Answer: 0.31 mg/kg

Question: And the Ki (5-HT1A receptor [2])?
Answer: 0.155 nM

Question: And the “Selectivity 5-HT1A/D2” value (5-HT1A receptor [2])?
Answer: 4 266

Question: For `O=C(c1ccc(Cl)c(Cl)c1)N1CCC(F)(CNCCc2ccccn2)CC1` [Example 2, (3,4-Dichlorophenyl){4-fluoro-4-[(2-pyrid-2-ylethylamino)methyl]-1-piperidyl}methanone], which ED50 (5-HT1A receptor [1]) is on record?
Answer: 0.31 mg/kg

Question: What about the Ki (5-HT1A receptor [2]) of the same compound?
Answer: 0.38 nM

Question: And the “Selectivity 5-HT1A/D2” value (5-HT1A receptor [2])?
Answer: 1 318
